Measured values taken from patent US20060046976A1, “Method for increasing the bone mineral density and bone micro-architecture or connectivity of a mammal using N-acylated glucosamines” (priority 2004, published 2006).

How the values were obtained:
[1] = tested on: non-ovariectomised animals; test: Wet weight of femurs, non-ovariectomised rats; assay type: in vivo, rat; details: oral feeding of GlcNBu, 6 months
Protocol: (§1) Sixteen ovariectomised rats (Charles River Laboratories), approximately 200 g in weight, were randomized into two groups. The control group received 200 mg of glucose, by mouth as single daily doses and the GlcNBu-treated group received 200 mg of GlcNBu by mouth, as single daily doses, for a total period of six (6) months. A similar group of non-ovariectomised animals was fed with GlcNBu or glucose at the same doses. The feeding of the compounds was done in small amounts of peanut butter which was very acceptable to the rats, which were allowed free access to water and rat chow. The animals had the BMDs of the femurs (total or global BMD) and the lumbar spines were estimated at baseline and then at, approximately 2, 4 and 6 months. Consistent position of the femurs was assured with a pre-determined grid. A Hologic 4500 DXA machine, with small animal software, was employed for the study. The animals were lightly anesthetized for each measurement.
(§2) At the end of the experiment, the animals were sacrificed, plasma was collected by cardiac puncture, and the femurs removed, fully dissected from adherent tissue and the wet weight was determined. The concentrations of Insulin-like Growth factor I (IGF-1) in the plasma, obtained at the end of the experiment, were determined by a commercial immunological method.

[2] = tested on: ovariectomised rats; test: Wet weight of femurs, ovariectomised rats; assay type: in vivo, rat; details: ovariectomised animals, oral feeding of GlcNBu, 6 months
Protocol: as §1, §2

[3] = tested on: SCW-arthritis rats; test: Micro-CT three-dimensional trabecular bone measurements of proximal tibia, SCW-arthritis rats; assay type: in vivo, Lewis type rats
Excerpt: In this experiment performed and described herein, there were four groups of Lewis type rats, consisting of eight (8) animals in each group. Lewis type rats had experimental arthritis induced by a single intra-peritoneal injection of streptococcal cell wall antigen (SCW). This type of arthritis has an acute and chronic phase and affects mostly the distal joints in the hind limbs of the animals, and, less so, the knees and hips. Groups 1-3, inclusive, had inflammatory arthritis induced. The compound used in the experiment was used to supplement normal rat chow feed on a daily basis. Feed and water were unrestricted. Group I feed was supplemented with the compound shown in formula II, abbreviated as GlcNBu, at a dose of 200mg/kg/day. Group 3 feed was supplemented with GlcNBu at 20 mg/kg/day. At the end of 6 weeks, the animals were sacrificed, the femurs and tibias were excised, fixed in formalin and the BMD, micro-CT measurements, 3-dimentional measurements and two-dimentional subchondral bone analysis were carried out, by the methods detailed below. • BMD. All the dissected femurs and tibiae were scanned with dual energy x-ray absorptiometry (DXA) were measured at the distal femur, and proximal tibia using a user defined region of interest (ROI). • Micro-CT imaging protocol. The fixed left tibiae were scanned with micro-CT scanner (Explore Locus SP micro CT Scanner, GE Healthcare). The tibias were placed in a water filled specimen tube in a firmed position such that the main axis was kept as parallel as possible to the Z-axis of the micro-CT image coordinate system. The reconstructed tibia images were analyzed with MicroView 2.0 software (GE Healthcare, London, ON) in two and three dimensions. • Three-dimensional trabecular bone measurements. Three dimensional bone analyses were conducted using three selected ROIs using MicroView 2.0 analysis software. On 3D analysis, the tissue volume (3D-TV, mm3) and trabecular bone volume (3D-BV, mm3) were measured directly, and the fractional trabecular bone volume (3D-BV/TV, %) was calculated. […] Another parameter obtained is the structure model index (SMI). The SMI represented the plate-rod characteristics of trabecular structure. In this measure, a negative number is indicative of a plate-like structure containing holes, 0 represents an ideal plate-like structure while 3 represents the ideal rod (cylindrical) structure. Larger SMI values indicate that trabecular structure contains a more rod-like structure in older or diseased bone. • Three-dimensional isosurface. A 3-D isosurface image of each tibia was obtained by a volume-rendering function in MicroView to qualitatively examine the erosive damage in the bone surface. • Two-dimensional subchondral bone analysis. Three coronal sections of proximal tibia were obtained from each 3-D reconstructed tibia image: anterior, central, and posterior (1 mm apart). The subchondral trabecular bone structure and connectivity in the epiphyseal region of the proximal tibia was analyzed using an image processing and analysis system (Quantimet 570, Leica) on the 2-D micro-CT images.

[4] = tested on: ovariectomised rats; test: Femoral and spine BMD by DXA in ovariectomised rats fed GlcNBu; assay type: in vivo, rat; details: 200 mg GlcNBu by mouth daily, 6 months
Excerpt: This investigation was designed to test the effects of GlcNBu on the BMD of the femurs in an ovariectomised rat model. The experiments performed are described as follows.
FIGS. 1A and 1B show the effect of GlcNBu feeding on femoral BMD with time, over six months, in the ovariectomized rat. Both the top and bottom panels show the mean total designated herein as global BMD of the femurs for the 8 animals in each group, with time. The actual BMD values are shown on the vertical axes. FIG. 1A Glc-O represents the data from the ovariectomised rats fed with glucose and FIG. 1B GlcNBu-O represents data from the ovariectomised rats fed with GlcNBu. The sequential DXA scans for estimating BMD at times 0, 2 months, 4 months and 6 months are illustrated on the horizontal axis and designated as Sequential Scan number 1.0, 2.0. 3.0 and 4.0, respectively.
Sixteen ovariectomised rats (Charles River Laboratories), approximately 200 g in weight, were randomized into two groups. The control group received 200 mg of glucose, by mouth as single daily doses and the GlcNBu-treated group received 200 mg of GlcNBu by mouth, as single daily doses, for a total period of six (6) months. A similar group of non-ovariectomised animals was fed with GlcNBu or glucose at the same doses. […] Consistent position of the femurs was assured with a pre-determined grid. […]

[5] = tested on: non-ovariectomised animals; test: BMD by DXA in non-ovariectomised rats fed GlcNBu; assay type: in vivo, rat; details: 200 mg GlcNBu daily, not statistically significant, data not shown
Protocol: as §1

[6] = tested on: Insulin-like Growth factor I (IGF-1); test: Plasma IGF-1 concentration by commercial immunological method; assay type: in vivo, rat; details: end of 6 months; ovariectomised GlcNBu fed rats compared to GlcNBu fed non-ovariectomised rats; p=0.044
Protocol: as §1, §2

[7] = SCW + GlcNBu High, lateral epiphysis of proximal tibia
[8] = SCW + GlcNBu High, medial epiphysis of proximal tibia
[9] = SCW + GlcNBu High, metaphysis of proximal tibia
[10] = SCW + GlcNBu Low, lateral epiphysis of proximal tibia
[11] = SCW + GlcNBu Low, medial epiphysis of proximal tibia
[12] = SCW + GlcNBu Low, metaphysis of proximal tibia

SMILES: CCCC(=O)N[C@H]1C(O)O[C@H](CO)[C@@H](O)[C@@H]1O (stereo partly drawn) [GlcNBu, N-butyryl-D-glucosamine]
- femoral wet weight [1]: increases femoral wet weight
- femoral wet weight [2]: increases femoral wet weight
- correction in SMI values compared to the untreated group ([3]; GlcNBu treated groups, three tested areas): 15-33%
- Trabecular Bone Volume [3, 7]: 36.9 ± 3.7%
- Trabecular Number [3, 7]: 6.0 ± 0.6
- Trabecular Thickness [3, 7]: 0.054 ± 0.008 mm
- Trabecular Bone Volume [3, 8]: 36.3 ± 4.8%
- Trabecular Number [3, 8]: 5.1 ± 0.7
- Trabecular Thickness [3, 8]: 0.066 ± 0.014 mm
- Trabecular Bone Volume [3, 9]: 32.6 ± 4.7%
- Trabecular Number [3, 9]: 8.2 ± 1.5
- Trabecular Thickness [3, 9]: 0.034 ± 0.004 mm
- Trabecular Bone Volume [3, 10]: 33.7 ± 2.7%
- Trabecular Number [3, 10]: 5.8 ± 0.5
- Trabecular Thickness [3, 10]: 0.052 ± 0.008 mm
- Trabecular Bone Volume [3, 11]: 33.1 ± 3.0%
- Trabecular Number [3, 11]: 5.0 ± 0.4
- Trabecular Thickness [3, 11]: 0.062 ± 0.011 mm
- Trabecular Bone Volume [3, 12]: 34.4 ± 9.4%
- Trabecular Number [3, 12]: 7.7 ± 1.3
- Trabecular Thickness [3, 12]: 0.034 ± 0.005 mm
- trabecular bone volume, trabecular number and thickness decreases in arthritis ([3]; SCW-arthritis rats, GlcNBu 20 and 200 mg/kg/day, 2D and 3D images): corrected by GlcNBu treatment in a dose dependent manner
- trabecular separation increase in SCW group ([3]; SCW-arthritis rats, GlcNBu treatment): significantly reduced
- increase in metaphyseal trabecular volume from Group2 to the GlcNBu treated groups ([3]; SCW-arthritis rats, low and high dose groups, p<0.05): 12%
- BMD of the spines vs glucose-fed ([4]; data not shown): the differences were not reach statistical significance
- femoral BMD (global) plateau vs control (glucose-fed) rats ([4]; plateau after 4 months, p<0.05): significantly higher
- BMD at the sites measured vs glucose-fed animals [5]: higher trends in the BMD
- plasma IGF-1 concentration [6]: significant difference
